What all share (format): in vivo
The test system of series [1] is Houseflies (MD) (Musca domestica). The conditions noted are these: for MD LD50 (µg/insect): Tables 10, 13, 14, NA = lack of detectable activity; for MD (LD50): topical 1 µl drop in acetone on female flies, kill assessed 24 and 48 hours. The method, then:
Female flies were treated on the thorax with a one microlitre drop of test compound dissolved in acetone. Two replicates of 15 flies were used at each dose rate and 6 dose rates were used per compound under test. After treatment, the flies were maintained at a temperature of 20° ± 1°C and kill was assessed 24 and 48 hours after treatment. LD50 values were calculated in micrograms of test compound per fly (see Sawicki et al., Bulletin of the World Health Organisation, 35, 893 (1966) and Sawicki et al., Entomologia and Exp. Appli 10, 253, (1967).

The subject of series [2] is Mustard beetles (PC) (Phaedon cochleariae Fab). The conditions noted are these: for PC LD50 (µg/insect): Tables 10, 13, 14; for PC LD50 (µg/insect) / PC (LD50): NA = lack of detectable activity; for PC (LD50): 1 µl acetone drop applied ventrally to adults, kill at 48 hours. The method, then: A one microlitre drop of an acetone solution of the test compound was applied ventrally to adult mustard beetles using a micro drop applicator. The treated insects were maintained for 48 hours after which time kill was assessed. Two replicates each of 20 to 25 mustard beetles were used at each dose level and 5 dose levels were treated comparably. LD50 values were calculated as for houseflies.

Series [3] deals with Mites (TU) (Tetranychus urticae), susceptible strain (GSS). Description: Mite immersion test, susceptible strain GSS. The method, then: 25 adult female mites were immersed in 35 µl of a solution of the test compound in a 1:4 acetone-water mixture for 30 seconds. The treated insects were maintained at 21° ± 2°C and kill was assessed 72 hours after treatment. […] Three replicates of 25 mites each were used at each dose rate and 5 or 6 dose rates were used per compound under test. LC50 values were calculated in ppm of the solution of the test compound per insect. The test was carried out using a susceptible strain of mites (GSS) supplied by Schering, AG, Berlin.

The test system of series [4] is Whitefly (BT) (Bemisia tabaci), susceptible strain (SUD-S). Briefly: Whitefly residual film vial test, susceptible strain SUD-S. The method, then:
Acetone solutions (0.100 ml) of the test compounds were placed in 10 ml glass vials and evaporated with rotation to deposit a film of the compound. Thirty adult whiteflies were placed inside the vial, then after 60 minutes, the treated insects were transferred onto untreated cotton leaf discs which were kept moist on a bed of agar gel. The temperature was maintained at 25°C and mortality assessed after 48 hours. Three replicates were used at each of 5 to 7 dose levels per compound.

Where [5] appears, read: 72 h, Tables 10, 13, 14, susceptible strain, NA = lack of detectable activity, read-out: TU LC50 (ppm/insect).
[6] abbreviates: 48 h, Tables 10, 13, 14, susceptible strain, NA = lack of detectable activity, read-out: BT LC50 (ppm/insect).
The mark [7] stands for this setting: ppm solution of test compound, 30 seconds immersion, kill at 72 hours, read-out: TU(GSS) (LC50).

SMILES strings stand for the structures. Values after ≈ are worked out from the molar mass of the structure shown. Like-named read-outs stand apart in the source and are kept apart here. Marks after values point to notes of the source that are not given here.

Turning to `CCCCCCCCC1=C(O)C(=O)c2ccccc2C1=O` [-(CH2)7CH3, reference compound], the “MD LD50 (µg/insect)” value in series [1] is recorded as 1.9 µg/insect. Further, the “PC LD50 (µg/insect)” value in series [2] amounted to 0.78 µg/insect. For the same molecule, the LC50 was around 1000 µg/mL (≈ 3490 µM) in series [3] (setting [5]) and 19 µg/mL (≈ 66.3 µM) in series [4] (setting [6]).

Regarding `C=CC(C)(C)C1=C(OC(=O)CCCC)C(=O)c2ccccc2C1=O` [Example 6], in series [1], the “MD (LD50)” value is given as “c. 2.0 µg/insect”. In series [2], the “PC (LD50)” value amounted to 2.1 µg/insect. Further, the LC50 in series [3] (setting [7]) was found to be 27 µg/mL (≈ 82.7 µM); in series [4] (ppm solution of test compound, 60 minutes film exposure, mortality after 48 hours, read-out: BT(SUD-S) (LC50)) it was 16 µg/mL (≈ 49 µM).

Turning to `C=CC1(C2=C(O)C(=O)c3ccccc3C2=O)CCCC1` [Example 30], in series [1], the “MD LD50 (µg/insect)” value worked out at 15 µg/insect. The “PC LD50 (µg/insect)” value in series [2] is reported as below 20 µg/insect. Further, the LC50 was 6 µg/mL (≈ 22.4 µM) in series [3] (setting [5]) and around 50 µg/mL (≈ 186 µM) in series [4] (setting [6]).

Turning to `CC(C)(C)CC1=C(O)C(=O)c2ccccc2C1=O` [Example 35, 2-(2,2-dimethylpropyl)-3-hydroxy-naphthalene-1,4-dione], the “MD LD50 (µg/insect)” value in series [1] came to 1.2 µg/insect. Further, the “PC LD50 (µg/insect)” value in series [2] is 4.6 µg/insect. Further, in series [4] (setting [6]), the LC50 was around 12 µg/mL (≈ 49.1 µM).

As for `CCCCCC1=C(O)C(=O)c2ccccc2C1=O` [-(CH2)4CH3, reference compound], the “PC LD50 (µg/insect)” value in series [2] is on record as “c7 µg/insect”. The LC50 in series [3] (setting [5]) worked out at 16 µg/mL (≈ 65.5 µM); in series [4] (setting [6]) it was 17 µg/mL (≈ 69.6 µM).

Turning to `CCCCCCCCCCCCCCC1=C(O)C(=O)c2ccccc2C1=O` [-(CH2)13CH3, reference compound], the LC50 in series [3] (setting [5]) was 1.3 µg/mL (≈ 3.51 µM).

Turning to `CC(C)(C)C=CC1=C(O)C(=O)c2ccccc2C1=O` [Example 42, 2-(3,3-dimethyl-but-1-enyl)-3-hydroxy-naphthalene-1,4-dione], the “PC LD50 (µg/insect)” value in series [2] turned out to be 3.6 µg/insect. The LC50 in series [3] (setting [5]) is around 100 µg/mL (≈ 390 µM); in series [4] (setting [6]), 17 µg/mL (≈ 66.3 µM).

`CCCCCCCCCCC1=C(O)C(=O)c2ccccc2C1=O` [-(CH2)9CH3, reference compound]: the “PC LD50 (µg/insect)” value in series [2] stood at 1.9 µg/insect. Further, the results for the LC50 in series [3] (setting [5]) and in series [4] (setting [6]) were 5.5 µg/mL (≈ 17.5 µM) and above 100 µg/mL, respectively.

In the case of `C=CC(C)(C)C1=C(O)C(OC)(OC)c2ccccc2C1=O` [Example 14, 1,1-dimethoxy-2-hydroxy-3-(1,1-dimethylprop-2-enyl)-naphthalene-4-one], the “MD (LD50)” value in series [1] is on record as “c. 2.5 µg/insect”. Besides, in series [2], the “PC (LD50)” value was “c. 6.0 µg/insect”. For the same molecule, in series [3] (setting [7]), the LC50 is around 800 µg/mL (≈ 2770 µM).

Take `CCCC(C)(C)C1=C(OC(=O)CC)C(=O)c2ccccc2C1=O` [Example 17]: in series [1], the “MD (LD50)” value stood at 14 µg/insect. Further, the LC50 in series [3] (setting [7]) is 50 µg/mL (≈ 159 µM).

Consider `C=CC(C)(C)C1=C(OC(=O)CF)C(=O)c2ccccc2C1=O` [Example 9], for which, in series [2], the “PC (LD50)” value was 0.41 µg/insect. Also, the LC50 in series [3] (72 h, read-out: TU(GSS) (LC50)) was 140 µg/mL (≈ 463 µM); in series [4] (48 h, read-out: BT(SUD-S) (LC50)) it was 13.4 µg/mL (≈ 44.3 µM).

As to `C=CC(C)(C)C1=C(O)C(=NOC)c2ccccc2C1=O` [Example 15], in series [2] (mustard beetle, in vivo, topical or ocular, 48 h), the “PC % Kill at 20 µg/insect” value is on record as 35% *. The mortality at 1000 ppm in series [4] (48 h, read-out: BT(SUD-S) % Kill at 1000 ppm solution of test compound) came out at 97%.

With `CCCC1=C(O)C(=O)c2ccccc2C1=O` [-(CH2)2CH3, reference compound], in series [2], the “PC LD50 (µg/insect)” value is “c10 µg/insect”. Besides, the figures for the LC50 in series [3] (setting [5]) and in series [4] (setting [6]) were around 1000 µg/mL (≈ 4620 µM) and 80 µg/mL (≈ 370 µM), respectively.

For `C=CC(C)(C)C1=C(OC(=O)c2ccccc2)C(=O)c2ccccc2C1=O` [Example 11], the LC50 in series [3] (setting [7]) is around 50 µg/mL (≈ 144 µM).

Turning to `C=CC(C)(C)CCC1=C(O)C(=O)c2ccccc2C1=O` [Example 50], the LC50 amounted to 6.5 µg/mL (≈ 24 µM) in series [3] (setting [5]) and 16 µg/mL (≈ 59.2 µM) in series [4] (setting [6]).

Take `C=CC(C)(C)C1=C(OC)C(=O)c2ccccc2C1=O` [Example 12, 2-(1,1-dimethylprop-2-enyl)-3-methoxy-naphthalene-1,4-dione]: the “MD (LD50)” value in series [1] is reported as above 20 µg/insect. For the same molecule, in series [2], the “PC (LD50)” value is “c. 12.0 µg/insect”.

Regarding `CCCCCCCCCCCC1=C(O)C(=O)c2ccccc2C1=O` [-(CH2)10CH3, reference compound], in series [2], the “PC LD50 (µg/insect)” value was “c0.4 µg/insect”. Moreover, the LC50 in series [3] (setting [5]) is 1.4 µg/mL (≈ 4.26 µM); in series [4] (setting [6]) it was above 100 µg/mL.

The record behind these values is EP0802730B1, “PESTICIDAL COMPOUNDS” (BTG INTERNATIONAL LIMITED, priority 1995, dated 1996).
